Results as given in patent US12685777B2, “Compositions, systems, and methods for modulating a target gene” (The Board of Trustees of the Leland Stanford Junior …, priority 2022, dated 2026).

Assays:
BCL6 mRNA = assay: RT-qPCR of BCL6 isoforms; format: cell-based, human; details: 10 nM
Experimental: 12. RNA Extraction, qPCR, and Sequencing Library Preparation Cells were plated at 1 M/mL and harvested in TRIsure (Bioline #38033). RNA was extracted using Direct-zol RNA MicroPrep columns (Zymo #R^2062) treated with DNAseI. cDNA was prepared for RT-qPCR using the SensiFAST cDNA preparation kit according to manufacturer instructions (Bioline #65054). 1 μL of cDNA was used per RT-qPCR reaction prepared with SYBR Lo-ROX (Bioline #94020). For sequencing library preparation, polyA-containing transcripts were enriched for (NEB #E7490S) and prepared into paired-end libraries (NEB #E7760S). Libraries were sequenced on an Illumina NovaSeq (Novogene). 13. Western Blots
Thus, TCIPs can rewire a repressive negative feedback pathway into a positive feedback pathway, amplifying the potency of the molecule in killing cancer cells (model in FIG. 40, Panel D).

OCILY19 = assay: Cell viability of OCILY19 DLBCL cells; format: cell-based
Experimental: (§1) 30,000 cells were plated in 100 μL media per well of a 96 well plate and treated with drug for indicated times and doses. A resazurin-based indicator of cell health (PrestoBlue, ThermoFisher #P50200) was added for 1.5 hours after which the fluorescence ratio at 560/590 nm was recorded. The background fluorescence was subtracted and the signal was normalized to DMSO-treated cells. EC50 measurements on cell lines were done with 4 biological repeats by separate cell passages maintained by 3 independent investigators. Fit of dose-response curves to data and statistical analysis was performed using drc package in R using the four-parameter log-logistic function.
The level of expression of BCOR, NCOR and SMRT, which engage PRC and HDACs to produce epigenetic suppression of target genes varied among the cell lines and could also contribute to the variation in sensitivity. […] Among the cell lines tested there was no evidence that killing required TP53, nor was there evidence of repression of killing by endogenous BCL2 levels (FIG. 28, Panel B).

[1] = system: primary human fibroblasts; assay: Cell viability of primary human fibroblasts; format: cell-based; details: 72 hours, read-out: EC50 of killing of fibroblasts
Experimental: (§2) Lymphoma and leukemia cells were cultured in RPMI-1640 (ATCC 30-2001)+10% FBS with antibiotics (100× PenStrep GIBCO #15140122). Primary human fibroblasts were obtained from ATCC (#CRL2522), cultured in DMEM+10% FBS with antibiotics and used at passages 3-5. Primary human tonsillar lymphocytes were a kind gift from M. M. Davis. Cells were routinely checked for mycoplasma and immediately checked upon suspicion. No cultures tested positive.
as §1
(§3) After treatment, mouse tissue was harvested for RNA-seq and histology. […] Serum concentrations after 8 hours were -100 to 400-fold higher than therapeutic doses (FIG. 37, Panel C).

BRD4^BD1 = target: T1, BRD4^BD1 (Homo sapiens, UniProt O60885); assay: Isothermal calorimetry (ITC), binary titration; format: binding; details: read-out: KD BRD4:TCIP1
T1 construct: 6xHis-TEV (N, cleaved yes)
Source text: The first one or two injections and outliers from instrument noise were routinely excluded. Data was fit to a one-site model using MicroCal LLC Origin software.
One reason for a broadening of the hook effect is the formation of cooperative protein-protein interactions induced by the drug, such as a molecular glue.

BCL6 reporter = BCL6 reporter assay (GFP) in KARPAS422 cells; format: cell-based, human; details: KARPAS422, 8 hours
Experimental: KARPAS422 cells were lentivirally transduced with a construct containing the reporter. […] Cells were washed in 2.5% FBS/PBS, 1:250 v/v of 7-AAD was added to distinguish live from dead cells, and harvested for flow cytometry on a BD Accuri. The GFP-positive gate were drawn off non-transduced cells and normalized to cells treated with DMSO.

[2] = system: primary human tonsillar lymphocytes; assay: Cell viability of primary human tonsillar lymphocytes; format: cell-based; details: 72 hours, read-out: EC50 of killing of lymphocytes
Experimental: as §2, §1, §3

KARPAS422 [3] = assay: Cell cycle and TUNEL analysis in KARPAS422 cells; format: cell-based, human
Experimental: Cells were incubated for 15 minutes at RT, then immediately measured on a BD Accuri. Gates were drawn based off single-stain and no-stain controls. For cell cycle and TUNEL analysis, cells plated at 1 M/mL were treated with drug for indicated timepoints and doses and pulsed with 10 μM ethynyl-EdU (Thermo #C10424) for 2 hours prior to harvesting on ice. 1 M cells were counted and washed in 2.5% FBS/PBS. Cells were resuspended at 10 M/mL and fixed in 4% PFA, washed, and permeabilized in 0.5% Triton-X100/PBS. […] Gates were drawn based off single-stain and no-stain controls and kept constant across conditions. Cancers can evade cell killing by many chemotherapeutics that function only during a specific stage of the cell cycle. […] The assay allows the analysis of the percentage of apoptotic cells in each cell population: G0/G1, G2/M, and S phase cells (FIG. 34). […] The finding implies that unlike many conventional chemotherapeutics, BRD4-BCL6-TCIPs could kill cancer cells without periods of potential insensitivity.

KARPAS422 [4] = assay: Annexin V / 7-AAD apoptosis assay in KARPAS422 cells; format: cell-based, human
Experimental: For annexin V assays, 500,000 cells plated at 1 M/mL treated with drug for indicated timepoints and doses were harvested on ice and washed twice in 2.5% FBS/PBS. 2.5 μL of 7-AAD and 2.5 μL of FITC-Annexin V (Biolegend #640922) were added. Cells were incubated for 15 minutes at RT, then immediately measured on a BD Accuri. Gates were drawn based off single-stain and no-stain controls. For cell cycle and TUNEL analysis, cells plated at 1 M/mL were treated with drug for indicated timepoints and doses and pulsed with 10 μM ethynyl-EdU (Thermo #C10424) for 2 hours prior to harvesting on ice. 1 M cells were counted and washed in 2.5% FBS/PBS. Cells were resuspended at 10 M/mL and fixed in 4% PFA, washed, and permeabilized in 0.5% Triton-X100/PBS. […] After washes, the sample was incubated with 2 μL 7-AAD and 5 μL RNAseA for 30 minutes at RT in the dark, washed, and measured on a BD Accuri. Gates were drawn based off single-stain and no-stain controls and kept constant across conditions.

BCL6 and BRD4 = target: T2, BCL6 and BRD4 (Homo sapiens, UniProt O60885+P41182); assay: BCL6-BRD4 nanoBRET assay in HEK cells; format: cell-based; details: C- and N-terminally labeled BCL6 with N-terminally labeled BRD4, HEK cells
T2 construct: N-terminal fusion of HaloTag to full-length BCL6; N-terminal fusion of nanoLuc (nano-luciferase) to full-length BRD4 (Promega #N169A); host or cells: HEK293T
Experimental: The conditions and methods for nanoBRET, a well-recognized assay of in vivo target engagement, are described in PMID 26006698.
A 12-point dose-response curve with 3 technical replicates for each TCIP was carried out and corrected BRET ratios were calculated according to manufacturer assay protocol (Promega #TM439). Data was fit using the R package drc using the four-parameter log-logistic function.

## CNC(=O)COc1cc2cc(Nc3nc(N4CCC(C(=O)NCCCCCCCNC(=O)C[C@@H]5N=C(c6ccc(Cl)cc6)c6c(sc(C)c6C)-n6c(C)nnc65)CC4)ncc3Cl)cc(OC)c2n(C)c1=O [TCIP1]
BCL6 mRNA
  Time to upregulation of the long isoform of BCL6 mRNA: 1 to 2 h
OCILY19
  Response of a DLBCL line with no detectable BCL6: little or no response
[1]
  EC50: ~470 nM
BRD4^BD1
  Kd: 5080 nM
BCL6 reporter
  Activation of BCL6 reporter: about 25 fold
BCL6 reporter; read-out: EC50 of BCL6 reporter activation
  EC50: 5 nM
[2]
  EC50: 210 nM
KARPAS422 [3]; KARPAS422
  Cell cycle block: both a G1/S and G2/M block
KARPAS422 [3]; KARPAS422, 100 nM
  Cell cycle phases in which cell death occurs (TUNEL): all phases of the cell cycle
KARPAS422 [4]
  Time to detectable apoptosis: 4 to 8 h

## CNC(=O)COc1cc2cc(Nc3nc(N4CCC(C(=O)NCCCCCCCNC(=O)C[C@@H]5N=C(c6ccc(Cl)cc6)c6c(sc(C)c6C)-n6c(C)nnc65)CC4)ncc3Cl)cc(OC)c2n(C)c1=O [JWZ-7-7, (S)-1-(5-chloro-4-((8-methoxy-1-methyl-3-(2-(methylamino)-2-oxoethoxy)-2-oxo-1,2-dihydroquinolin-6-yl)amino)pyrimidin-2-yl)-N-(7-(2-(4-(4-chlorophenyl)-2,3,9-trimethyl-6H-thieno[3,2-f][1,2,4]triazolo[4,3-a][1,4]diazepin-6-yl)acetamido)heptyl)piperidine-4-carboxamide]
BCL6 and BRD4
  nanoBRET signal of proximity: generated a specific signal of proximity
